Assay results taken from US10316017B2, “COT modulators and methods of use thereof” (Gilead Sciences, Inc., priority 2015, dated 2019).
Where two headings read alike, the source gives them in different places.

Legend:
[1] = tested on: TNFα production in LPS-stimulated human monocytes; assay: Cot Monocyte TNFα Cell Based Assay; conditions: for EC50: read-out: EC50 TNF
Procedure: Example 60: Cot Monocyte TNFα Cell Based Assay
The cell suspension was then plated at a density of 5,000 cells/well onto black 384 well Greiner clear bottom plates. Plates were pre-spotted with test compounds and serially diluted in DMSO where 200 nL/well were delivered using the Echo 550 acoustic liquid dispenser (Labcyte®) for a final DMSO concentration of 0.5%. Plated cells were treated with compound for 1 hour at 37° C. Cells were then stimulated with 50 pg/ml of LPS (Sigma) excluding outside columns of plate used for unstimulated cell control wells. Cells were incubated for an additional 4 hours at 37° C. Cells were then spun out of the media and 5 ul of sample were taken and analyzed for total TNFα content using the TR-FRET Human TNFα detection system (CisBio). This system utilizes two labeled antibodies (cryptate and XL665) that bind to two different epitopes of the TNFα molecule and produce FRET signal proportional to the concentration of TNFα in the sample. Detection antibodies are mixed 50:50 and 5 μL were dispensed into each well. Plates were covered with clear seals and incubated at room temp overnight. […] Percent of control was calculated as follows: % Control=100×(RatioSample−Ratio0% stimulation)/(Ratio100% Stimulation−Ratio0% Stimulation) where unstimulated cells (0% stimulation) were the negative control and stimulated cells (100% stimulation) were used as the positive control.

[2] = biological target: T1, human Cot catalytic domain (30-397 amino acids) (Homo sapiens, UniProt P41279); assay: High Throughput Cot Biochemical Assay (KinEASE TR-FRET); conditions: 400 μM ATP, read-out: IC50 HTRF
T1 construct: Purified recombinant human Cot catalytic domain (30-397 amino acids) was purchased from Cama Biosciences; purchased Cama Biosciences (so in the source)
T1 sequence (P41279 30-397): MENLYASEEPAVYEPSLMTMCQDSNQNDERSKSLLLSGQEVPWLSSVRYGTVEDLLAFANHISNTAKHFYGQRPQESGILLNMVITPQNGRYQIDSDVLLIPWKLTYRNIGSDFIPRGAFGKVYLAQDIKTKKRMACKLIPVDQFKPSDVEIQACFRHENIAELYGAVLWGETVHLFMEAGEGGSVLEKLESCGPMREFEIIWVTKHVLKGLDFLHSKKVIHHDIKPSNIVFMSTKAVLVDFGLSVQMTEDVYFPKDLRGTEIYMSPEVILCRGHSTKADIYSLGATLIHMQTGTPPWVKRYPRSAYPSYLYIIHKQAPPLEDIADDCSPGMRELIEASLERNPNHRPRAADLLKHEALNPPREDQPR
Summary of the method: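 Reaction of 5 nM recombinant human Cot catalytic domain (aa 30-397) with 1 μM STK3 peptide (XL665-labeled) and 400 μM ATP in 10 mM MOPS pH 7.0, 10 mM MgOAc, 1 mM DTT, 0.5 mg/mL BSA, 0.1% DMSO. Phosphopeptide detected by TR-FRET with europium anti-phospho antibody.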

[3] = LPS-stimulated human monocytes, TNFα TR-FRET
[4] = Homo sapiens, Monocyte, TNFα in LPS-stimulated human monocytes
[5] = Cot KinEASE TR-FRET (HTRF) biochemical assay
[6] = Homo sapiens, Monocyte, LPS-stimulated human monocytes, TNFα TR-FRET

Compound	EC50 [1, 4] [nM]	other results
8-chloro-4-((4-cyna-1- phenylbutyl)amino)-6-(((1- cyclopropyl-1H-1,2,3-triazol-4- yl)(4-fluorophenyl)methyl- d)amino)quinoline-3-carbonitrile [Example 981]		EC50 [1, 3]: 318 nM; IC50 ([2]; Cot KinEASE TR-FRET): 22 nM
[2H]C(Nc1cc(Cl)c2ncc(C#N)c(NC3[C@H]4CCC[C@@H]34)c2c1)(c1ccc(F)cc1)c1cn(C2CC2)nn1 (stereo in doubt) [Example 117, 4-(((1R,5S)-bicyclo[3.1.0]hexan-6-yl)amino)-8-chloro-6-(((S)-(1-cyclopropyl-1H-1,2,3-triazol-4-yl) (4-fluorophenyl)methyl-d)amino)quinoline-3-carbonitrile]	377	IC50 [2, 5]: 16 nM
[2H]C(Nc1cc(Cl)c2ncc(C#N)c(N[C@@H]3CCCC[C@@H]3N)c2c1)(c1ccc(F)cc1)c1cn(C2CC2)nn1 (stereo in doubt) [Example 228, 4-(((1R,2S)-2-aminocyclohexyl)amino)-8-chloro-6-(((S)-(1-cyclopropyl-1H-1,2,3-triazol-4-yl)(4-fluorophenyl)methyl-d)amino)quinoline-3-carbonitrile]	> 10000	IC50 [2, 5]: 807 nM
[2H]C(Nc1cc(Cl)c2ncc(C#N)c(N[C@H]3CCCC[C@H]3NC(=O)OC(C)(C)C)c2c1)(c1ccc(F)cc1)c1cn(C2CC2)nn1 (stereo in doubt) [Example 231, tert-butyl ((1R,2S)-2-((8-chloro-3-cyano-6-(((S)-(1-cyclopropyl-1H-1,2,3-triazol-4-yl)(4-fluorophenyl)methyl-d)amino)quinolin-4-yl)amino)cyclohexyl)carbamate]	> 10000	IC50 [2, 5]: > 10000 nM
[2H]C(Nc1cc(Cl)c2ncc(C#N)c(NC3C4CCCC43)c2c1)(c1ccc(F)cc1)c1cn(C2CC2)nn1 (stereo in doubt) [Example 242, 4-(bicyclo[3.1.0]hexan-6-ylamino)-8-chloro-6-(((S)-(1-cyclopropyl-1H-1,2,3-triazol-4-yl)(4-fluorophenyl)methyl-d)amino)quinoline-3-carbonitrile]	270	IC50 [2, 5]: 8 nM
CCN1CCC(n2cc(CNc3cc(Cl)c4ncc(C#N)c(Nc5ccc(F)c(Cl)c5)c4c3)nn2)CC1 [Comparative Example 1, reference compound]		IC50/EC50 [nM]: EC50 (TNFα, monocytes) ([1]; second value of the cell IC50/EC50, human monocytes, 50 pg/ml LPS, 4 hours): 310 nM
CC(C)n1cc([C@@H](Nc2cc(Cl)c3ncc(C#N)c(Nc4ccc(F)c(Cl)c4)c3c2)c2cccc(COCCN(C)C)c2)nn1 [Compound 40]	1260	
[2H][C@](Nc1cc(Cl)c2ncc(C#N)c(NCC3(CC)CCC3)c2c1)(c1ccc(F)cc1)c1cn(C2CC2)nn1 [Example 261, (S)-8-chloro-6-(((1-cyclopropyl-1H-1,2,3-triazol-4-yl)(4-fluorophenyl)methyl-d)amino)-4-(((1-ethylcyclobutyl)methyl)amino)quinoline-3-carbonitrile]	504	
[2H][C@](Nc1cc(Cl)c2ncc(C#N)c(NC3CN4CCC3CC4)c2c1)(c1ccc(F)cc1)c1cn(C2CC2)nn1 (stereo partly drawn) [Example 317, 8-chloro-6-(((S)-(1-cyclopropyl-1H-1,2,3-triazol-4-yl)(4-fluorophenyl)methyl-d)amino)-4-(quinuclidin-3-ylamino)quinoline-3-carbonitrile]		EC50 ([1]; Homo sapiens, Monocyte): 8260 nM
[2H][C@](Nc1cc(Cl)c2ncc(C#N)c(NCC3(C)CCOCC3)c2c1)(c1ccc(F)cc1)c1cn(-c2cccnc2)nn1 [Example 332, (S)-8-chloro-6-(((4-fluorophenyl)(1-(pyridin-3-yl)-1H-1,2,3-triazol-4-yl)methyl-d)amino)-4-(((4-methyltetrahydro-2H-pyran-4-yl)methyl)amino)quinoline-3-carbonitrile]	426	
CC[C@@H](Nc1c(C#N)cnc2c(Cl)cc(N[C@@H](c3ccc(F)cc3)c3cn(-c4ccccc4)nn3)cc12)c1ccccc1 [Example 392, 8-chloro-6-(((S)-(4-fluorophenyl)(1-phenyl-1H-1,2,3-triazol-4-yl)methyl)amino)-4-(((R)-1-phenylpropyl)amino)quinoline-3-carbonitrile]	308	
Cc1ccccc1[C@H](Nc1cc(Cl)c2ncc(C#N)c(Nc3cnc(F)c(F)c3)c2c1)c1c[nH]nn1 [Example 396, (S)-8-chloro-4-((5,6-difluoropyridin-3-yl)amino)-6-((o-tolyl(1H-1,2,3-triazol-4-yl)methyl)amino)quinoline-3-carbonitrile]	1230	
N#Cc1cnc2c(Cl)cc(N[C@@H](c3ccccc3)c3c[nH]nn3)cc2c1Nc1cnc(F)c(F)c1 [Example 582, (S)-8-chloro-4-((5,6-difluoropyridin-3-yl)amino)-6-((phenyl(1H-1,2,3-triazol-4-yl)methyl)amino)quinoline-3-carbonitrile]	734	
CC(C)(C)N1CCC(n2cc([C@@H](Nc3cc(Cl)c4ncc(C#N)c(Nc5csc(Cl)c5)c4c3)c3ccccc3)nn2)CC1 [Example 641, (S)-6-(((1-(1-(tert-butyl)piperidin-4-yl)-1H-1,2,3-triazol-4-yl)(phenyl)methyl)amino)-8-chloro-4-((5-chlorothiophen-3-yl)amino)quinoline-3-carbonitrile]	1530	
CC(C)(C)N1CCC(n2cc([C@@H](Nc3cc(Cl)c4ncc(C#N)c(Nc5cc(F)c(F)c(Cl)c5)c4c3)c3ccc(Cl)cc3)nn2)CC1 [Example 661, (S)-6-(((1-(1-(tert-butyl)piperidin-4-yl)-1H-1,2,3-triazol-4-yl)(4-chlorophenyl)methyl)amino)-8-chloro-4-((3-chloro-4,5-difluorophenyl)amino)quinoline-3-carbonitrile]	1090	
CC(C)(C)N1CCC(n2cc([C@@H](Nc3cc(Cl)c4ncc(C#N)c(Nc5ccc(F)c(Cl)c5Cl)c4c3)c3ccc(Cl)cc3)nn2)CC1 [Example 665, (S)-6-(((1-(1-(tert-butyl)piperidin-4-yl)-1H-1,2,3-triazol-4-yl)(4-chlorophenyl)methyl)amino)-8-chloro-4-((2,3-dichloro-4-fluorophenyl)amino)quinoline-3-carbonitrile]	1970	
CC(C)(C)N1CCC(n2cc([C@@H](Nc3cc(Cl)c4ncc(C#N)c(Nc5cccc(Cl)c5)c4c3)c3ccc(Cl)cc3)nn2)CC1 [Example 776, (S)-6-(((1-(1-(tert-butyl)piperidin-4-yl)-1H-1,2,3-triazol-4-yl)(4-chlorophenyl)methyl)amino)-8-chloro-4-((3-chlorophenyl)amino)quinoline-3-carbonitrile]	1240	
N#CCn1cc([C@@H](Nc2cc(Cl)c3ncc(C#N)c(Nc4ccc(F)c(Cl)c4)c3c2)c2ccc(F)cc2)nn1 [Example 815, (S)-8-chloro-4-((3-chloro-4-fluorophenyl)amino)-6-(((1-(cyanomethyl)-1H-1,2,3-triazol-4-yl)(4-fluorophenyl)methyl)amino) quinoline-3-carbonitrile]	311	
[2H][C@](Nc1cc(Cl)c2ncc(C#N)c(N[C@H](CCS(C)(=O)=O)c3ccccc3)c2c1)(c1ccc(F)cc1)c1cn(C2CC2)nn1 [Example 932, 8-chloro-6-(((1-cyclopropyl-1H-1,2,3-triazol-4-yl)(4-fluorophenyl)methyl-d)amino)-4-(((R)-3-(methylsulfonyl)-1-phenylpropyl)amino)quinoline-3-carbonitrile]		EC50 [1, 6]: 505 nM
CC(C)(C)CNc1c(C#N)cnc2c(Cl)cc(NC(c3cn(C4(CO)CC4)nn3)c3ccccc3Cl)cc12 (stereo not drawn) [Example 964, 8-chloro-6-(((2-chlorophenyl) (1-(1-(hydroxymethyl)cyclopropyl)-1H-1,2,3-triazo1-4-yl)methyl-d)amino)-4-(neopentylamino)quinoline-3-carbonitrile]		EC50 [1, 3]: 254 nM
CC(C)(C)CNc1c(C#N)cnc2c(Cl)cc(N[C@@H](c3ccccc3)c3cn(C4(C(F)F)CC4)nn3)cc12 [Example 1058, (S)-8-chloro-6-(((1-(1-(difluoromethyl)cyclopropyl)-1H-1,2,3-triazo1-4-yl)(phenyl)methyl)amino)-4-(neopentylamino)quinoline-3-carbonitrile]		EC50 [1, 6]: 314 nM
Cc1cc(C#N)ccc1[C@H](Nc1cc(Cl)c2ncc(C#N)c(NCC(C)(C)C)c2c1)c1cn(C2(C(F)(F)F)CC2)nn1 [Example 1099, (S)-8-chloro-6-(((4-cyano-2-methylphenyl)(1-(1-(trifluoromethyl)cyclopropyl)-1H-1,2,3-triazol-4-yl)methyl)amino)-4-(neopentylamino)quinoline-3-carbonitrile]		EC50 [1, 6]: 188 nM
